Patent US20050074820A1, “Method for the immunohistological detection of fibrogenesis in histological tissue sections using antiboides against C-terminal procollagen alpha1 (III) propeptide” (priority 2001, published 2005)

Key:
[1] = system: patients with chronic hepatitis B; assay: Serum ALT before and after 52 weeks of treatment, phase III trials; format: in vivo, human
[2] = system: hepatitis B virus (HBV) DNA; assay: HBV DNA concentration before and after treatment; format: in vivo
α-SMA = assay: Quantitative immunostain of α-SMA in liver tissue sections (image analysis); format: in vivo, human; conditions: for α-SMA expression (stained area over total area): all lamivudine patients; for α-SMA expression: lamivudine-treated, Pre
Description: (§1) Paraffin-embedded tissue sections were stained for α-smooth muscle actin (α-SMA) or PIIICP (FIG. 2). The staining procedure was carried out using the DAKO Envision System (DAKO; Carpinteria, Calif., USA). After inhibiting endogenous peroxidase with Peroxidase Blocking Agent (DAKO) the tissue sections were incubated for 10 minutes at room temperature with a murine monoclonal anti-α-SMA antibody (diluted 1:200 in PBS+1% BSA) or with a murine monoclonal anti-PIIICP antibody (antibody concentration 5 mg/ml; diluted 1:100 in PBS+1% BSA). After the incubation, the sections were washed twice with PBS buffer for 3 minutes, respectively. The tissue sections were then incubated with labelled polymer (peroxidase-labelled polymer conjugated with anti-rabbit and anti-mouse immunoglobulins from the goat) at room temperature for 10 minutes. After washing twice with PBS buffer the tissue sections were incubated with 3,3-diaminobenzidine (DAB) substrate for 8 minutes, rinsed with water and exposed to DAB Enhancer (Innovex Bioscience; Richmond, Calif., USA) for 5 minutes and subsequently rinsed with water again. Counterstaining was performed with hematoxyline. As a negative control all samples were incubated with 1% BSA solution instead of antibody.
(§2) The stained parenchymal areas on the tissue sections, that are formed by α-SMA or PIIICP-positive hepatic stellate cells, were quantified with the Bioquant TCW 98 image analysis program (Bioquant Image Analysis; www.bioquant.com) with the connected Computer as well as with an Olympus microscope. The results were stated as the percent ratio between the stained area and the total area.
(§3) The immunohistochemical quantification was futhermore correlated with changes of individual components of the histological activity index (HAI) or with entire HAI. For the individual patients in both treatment groups—lamivudine or placebo, respectively—the change of α-SMA- or PIIICP-stained areas was calculated according to: ΔSMA (or ΔPIIICP)=percent area before treatment minus percent […]. The mean change was compared between the lamivudine-treated and the placebo-treated groups using Student's t-Test.

PIIICP = assay: Quantitative immunostain of PIIICP in liver tissue sections (image analysis); format: in vivo, human; conditions: for PIIICP expression (stained area over total area): all lamivudine patients; for PIIICP expression: lamivudine-treated, Pre
Description: as §1, §2, §3

[3] = system: hepatitis B e-antigen (HBeAg); assay: Loss of hepatitis B e-antigen under treatment; format: in vivo, hepatitis B virus; conditions: lamivudine 100 mg daily, 52 weeks; versus 9% placebo, p<0.05
Source text: The liver tissue samples were examined by a pathologist. […] A reduction of the HAI by 2 points HAI is considered a significant change in hepatic histology after the termination of the treatment.
The baselines and the quantitative immunostains against α-SMA und PIIICP were compared between lamivudine und placebo patients using Student's t-tests. In addition, the results of the immunostains were correlated with the loss of the hepatitis B e-antigen (HBeAg) using the Mantel-Haenszel chi square test.

[4] = lamivudine group n = 47, Post (100 mg daily, 52 weeks)

Nc1ccn([C@@H]2CS[C@H](CO)O2)c(=O)n1 [Lamivudine, lamivudine]
ALT (mean ± SD) ([1]; chronic hepatitis B patients, lamivudine group n = 47, Pre (before treatment)): 154 ± 100 IU/l | ALT (mean ± SD) [1, 4]: 60.7 ± 55 IU/l | HBV DNA [2, 4]: 33 ± 120 pg/mL | HBV DNA ([2]; lamivudine group n = 47, Pre (before treatment)): 180 ± 211^ψ pg/ml | α-SMA expression (stained area over total area) (α-SMA; after treatment): 0.58±0.11% | α-SMA expression (stained area over total area) (α-SMA; before treatment): 1.06±0.23% | α-SMA expression (α-SMA; HbeAg loss (n = 17)): 1.46 | α-SMA expression (α-SMA; No loss of HbeAg (n = 30)): 0.83 | PIIICP expression (stained area over total area) (PIIICP; after lamivudine): 0.02% | PIIICP expression (stained area over total area) (PIIICP; before lamivudine): 0.06% | PIIICP expression (PIIICP; HbeAg loss (n = 17)): 0.10 | PIIICP expression (PIIICP; No loss of HbeAg (n = 30)): 0.03 | patients who lost the HbeAg [3]: 36.2%
